According to ChEMBL document CHEMBL4699467, “Progress towards a stable cephalosporin-halogenated phenazine conjugate for antibacterial prodrug applications” (Bioorg Med Chem Lett, 2020):
In brackets after ≈: the same amount, converted by molar mass.

What was measured:
Staphylococcus aureus = experiment: Antibacterial activity against methicillin-resistant Staphylococcus aureus BAA-1707 assessed as inhibition of bacterial growth incubated for 16 to 18 hrs by CLSI protocol based two fold serial dilution method; format: functional; details: time hrs 16-18
[1] = Stability of the compound in methicillin-resistant Staphylococcus aureus BAA-1707 for 16 to 18 hrs; format: ADME; details: time 16-18 hrs

Row | SMILES | MIC (Staphylococcus aureus) | Stabilty [1]
1 | Oc1c(Br)cc(Br)c2nc3ccccc3nc12 | 1 µM (≈ 0.354 µg/mL) | 
2 | O=C(Cc1cccs1)N[C@@H]1C(=O)N2C(C(=O)OC(c3ccccc3)c3ccccc3)=C(COC(=O)Oc3c(Br)cc(Br)c4nc5ccccc5nc34)CS[C@H]12 | > 100 µM | Stable
